Test results: patent US20260184710A1, “CASITAS B-LINEAGE LYMPHOMA PROTOONCOGENE B (CBL-B) DEGRADING COMPOUNDS AND ASSOCIATED METHODS OF USE” (Arvinas Operations, Inc., priority 2022, published 2026)

Biological target: T1, Cbl-b (Homo sapiens, UniProt Q13191)
T1 construct: Cbl-b-HiBit KI Jurkat Cells were purchased from Promega; host or cells: Cbl-b-HiBiT knock-in Jurkat cells
Test: Cbl-b Degradation Method B (Nano-Glo HiBiT lytic detection)
Assay type: cell-based
Details: Cbl-b-HiBit KI Jurkat Cells, incubated at least 6-24 hours; for DC50: half maximal degradation, read-out: Cbl-b Degredation Method B IC50; for Dmax: maximum degradation observed, read-out: Cbl-b Degredation Method B Dmax (%)
Outline: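 Cbl-b-HiBiT knock-in Jurkat cells (20,000/well) were treated after ~24 h plating with an 11-point 1:3 series for 6-24 h at 37° C. Remaining Cbl-b measured by Nano-Glo HiBiT lytic luminescence. DC50 and Dmax expressed as % of control.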

T1 sequence (Q13191 whole entry): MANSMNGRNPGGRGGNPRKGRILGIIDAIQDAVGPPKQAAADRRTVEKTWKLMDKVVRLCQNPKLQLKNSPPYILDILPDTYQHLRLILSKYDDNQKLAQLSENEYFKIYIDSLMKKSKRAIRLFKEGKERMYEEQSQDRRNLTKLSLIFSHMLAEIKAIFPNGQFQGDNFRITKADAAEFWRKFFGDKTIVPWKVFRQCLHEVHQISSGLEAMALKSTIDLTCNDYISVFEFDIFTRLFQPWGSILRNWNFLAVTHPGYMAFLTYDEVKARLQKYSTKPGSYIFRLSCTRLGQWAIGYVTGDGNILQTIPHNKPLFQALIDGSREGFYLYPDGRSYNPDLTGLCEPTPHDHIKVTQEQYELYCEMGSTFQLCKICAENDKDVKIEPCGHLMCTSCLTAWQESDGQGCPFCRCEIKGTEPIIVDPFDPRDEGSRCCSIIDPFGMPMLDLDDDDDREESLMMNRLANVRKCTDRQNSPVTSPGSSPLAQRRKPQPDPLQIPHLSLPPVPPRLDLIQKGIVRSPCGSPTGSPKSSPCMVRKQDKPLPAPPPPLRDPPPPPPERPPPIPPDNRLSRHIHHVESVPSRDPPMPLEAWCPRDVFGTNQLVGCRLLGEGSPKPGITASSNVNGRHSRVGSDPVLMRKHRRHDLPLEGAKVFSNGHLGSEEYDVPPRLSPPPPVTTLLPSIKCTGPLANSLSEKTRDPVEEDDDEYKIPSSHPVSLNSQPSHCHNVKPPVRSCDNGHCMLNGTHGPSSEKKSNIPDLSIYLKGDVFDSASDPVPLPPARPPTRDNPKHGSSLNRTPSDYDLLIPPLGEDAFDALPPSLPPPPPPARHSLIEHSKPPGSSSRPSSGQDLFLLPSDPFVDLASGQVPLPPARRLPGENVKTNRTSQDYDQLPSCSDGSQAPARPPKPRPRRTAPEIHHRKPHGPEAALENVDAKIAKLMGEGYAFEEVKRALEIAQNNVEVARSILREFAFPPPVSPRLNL

SMILES: Cc1cc(N2CCC(CN3CCCN(c4cc5c(c(C(F)(F)F)c4)CN(c4cccc([C@]6(Cc7nncn7C)C[C@@H](C#N)C6)c4)C5=O)CC3)CC2)c(F)c2c1C(=O)N(C1CCC(=O)NC1=O)C2 (stereo partly shown) [Example 170, (1r,3r)-3-(3-{6-[4-({1-[2-(2,6-dioxopiperidin-3-yl)-4-fluoro-7-methyl-1-oxo-2,3-dihydro-1H-isoindol-5-yl]piperidin-4-yl}methyl)-1,4-diazepan-1-yl]-1-oxo-4-(trifluoromethyl)-2,3-dihydro-1H-isoindol-2-yl}phenyl)-3-[(4-methyl-4H-1,2,4-triazol-3-yl)methyl]cyclobutane-1-carbonitrile]
- DC50: > 500 nM

SMILES: CC1c2nc(N3CCC(O[C@H]4CC[C@H](CN5CCCN(c6cc7c(c(C(F)(F)F)c6)CN(c6cccc([C@]8(Cc9nncn9C)C[C@@H](C#N)C8)c6)C7=O)CC5)CC4)CC3)ccc2C(=O)N1C1CCC(=O)NC1=O (stereo partly shown) [Example 180, (1r,3r)-3-[(4-methyl-4H-1,2,4-triazol-3-yl)methyl]-3-{3-[1-oxo-6-(4-{[(1r,4r)-4-({1-[6-(2,6-dioxopiperidin-3-yl)-7-methyl-5-oxo-5H,6H,7H-pyrrolo[3,4-b]pyridin-2-yl]piperidin-4-yl}oxy)cyclohexyl]methyl}-1,4-diazepan-1-yl)-4-(trifluoromethyl)-2,3-dihydro-1H-isoindol-2-yl]phenyl}cyclobutane-1-carbonitrile]
- DC50: < 5 nM
- Dmax: < 35%

SMILES: CC1c2nc(N3CCC(O[C@H]4CC[C@H](CN5C[C@@H]6C[C@H]5CN6c5cc6c(c(C(F)(F)F)c5)CN(c5cccc([C@]7(Cc8nncn8C)C[C@H](C#N)C7)c5)C6=O)CC4)CC3)ccc2C(=O)N1C1CCC(=O)NC1=O (stereo partly drawn) [Example 182, (1r,3r)-3-[(4-methyl-4H-1,2,4-triazol-3-yl)methyl]-3-(3-{1-oxo-6-[(1S,4S)-5-{[(1r,4r)-4-({1-[6-(2,6-dioxopiperidin-3-yl)-7-methyl-5-oxo-5H,6H,7H-pyrrolo[3,4-b]pyridin-2-yl]piperidin-4-yl}oxy)cyclohexyl]methyl}-2,5-diazabicyclo[2.2.1]heptan-2-yl]-4-(trifluoromethyl)-2,3-dihydro-1H-isoindol-2-yl}phenyl)cyclobutane-1-carbonitrile]
- DC50: 5 to 50 nM
- Dmax: < 35%

SMILES: CC1c2nc(N3CCC(OC4CCC(CN5CC6CCC(C5)N6c5cc6c(c(C(F)(F)F)c5)CN(c5cccc(C7(Cc8nncn8C)CC(C#N)C7)c5)C6=O)CC4)CC3)ccc2C(=O)N1C1CCC(=O)NC1=O (stereo not shown) [Example 183, (1r,3r)-3-[(4-methyl-4H-1,2,4-triazol-3-yl)methyl]-3-{3-[1-oxo-6-(3-{[(1r,4r)-4-({1-[6-(2,6-dioxopiperidin-3-yl)-7-methyl-5-oxo-5H,6H,7H-pyrrolo[3,4-b]pyridin-2-yl]piperidin-4-yl}oxy)cyclohexyl]methyl}-3,8-diazabicyclo[3.2.1]octan-8-yl)-4-(trifluoromethyl)-2,3-dihydro-1H-isoindol-2-yl]phenyl}cyclobutane-1-carbonitrile]
- DC50: 5 to 50 nM
- Dmax: < 35%

SMILES: Cc1cc(N2CCC(CN3CCC4(CC3)CN(c3cc5c(c(C(F)(F)F)c3)CN(c3cccc(C6(Cc7nncn7C)CC6)c3)C5=O)C4)CC2)c(F)c2c1C(=O)N(C1CCC(=O)NC1=O)C2 (stereo not shown) [Example 191, 3-{4-fluoro-7-methyl-5-[4-({2-[2-(3-{1-[(4-methyl-4H-1,2,4-triazol-3-yl)methyl]cyclopropyl}phenyl)-3-oxo-7-(trifluoromethyl)-2,3-dihydro-1H-isoindol-5-yl]-2,7-diazaspiro[3.5]nonan-7-yl}methyl)piperidin-1-yl]-1-oxo-2,3-dihydro-1H-isoindol-2-yl}piperidine-2,6-dione]
- DC50: < 5 nM
- Dmax: 35 to 70%

SMILES: CC(C)n1c(=O)n(C2CCC(=O)NC2=O)c2ccc(N3CCC(CN4CCC5(CC4)CN(c4cc6c(c(C(F)(F)F)c4)CN(c4cccc([C@]7(Cc8nncn8C)C[C@@H](C#N)C7)c4)C6=O)C5)CC3)cc21 (stereo partly shown) [Example 192, (1r,3r)-3-(3-{6-[7-({1-[1-(2,6-dioxopiperidin-3-yl)-2-oxo-3-(propan-2-yl)-2,3-dihydro-1H-1,3-benzodiazol-5-yl]piperidin-4-yl}methyl)-2,7-diazaspiro[3.5]nonan-2-yl]-1-oxo-4-(trifluoromethyl)-2,3-dihydro-1H-isoindol-2-yl}phenyl)-3-[(4-methyl-4H-1,2,4-triazol-3-yl)methyl]cyclobutane-1-carbonitrile]
- DC50: < 5 nM
- Dmax: 35 to 70%

SMILES: O=C1CCC(N2Cc3c(ccc(N4CCC(O[C@H]5CC[C@H](CN6CCN(Cc7cc8c(c(C(F)(F)F)c7)CN(c7cccc(C9(Cc%10nnc[nH]%10)COC9)c7)C8=O)CC6)CC5)CC4)c3F)C2=O)C(=O)N1 (stereo partly shown) [Example 197, 3-[4-fluoro-1-oxo-5-(4-{[(1r,4r)-4-[(4-{[3-oxo-2-(3-{3-[(4H-1,2,4-triazol-3-yl)methyl]oxetan-3-yl}phenyl)-7-(trifluoromethyl)-2,3-dihydro-1H-isoindol-5-yl]methyl}piperazin-1-yl)methyl]cyclohexyl]oxy}piperidin-1-yl)-2,3-dihydro-1H-isoindol-2-yl]piperidine-2,6-dione]
- DC50: > 500 nM

SMILES: Cn1cnnc1C[C@]1(c2cccc(N3Cc4c(cc(CN5CCN(C[C@H]6CC[C@H](OC7CCN(c8cccc(C(=O)NC9CCC(=O)NC9=O)c8)CC7)CC6)CC5)cc4C(F)(F)F)C3=O)c2)C[C@H](C#N)C1 (stereo partly shown) [Example 198, N-(2,6-dioxopiperidin-3-yl)-3-(4-{[(1r,4r)-4-({4-[(3-oxo-2-{3-[(1r,3r)-3-cyano-1-[(4-methyl-4H-1,2,4-triazol-3-yl)methyl]cyclobutyl]phenyl}-7-(trifluoromethyl)-2,3-dihydro-1H-isoindol-5-yl)methyl]piperazin-1-yl}methyl)cyclohexyl]oxy}piperidin-1-yl)benzamide]
- DC50: 5 to 50 nM
- Dmax: < 35%

SMILES: Cn1cnnc1C[C@]1(c2cccc(N3Cc4c(cc(CN5CCN(C[C@H]6CC[C@H](OC7CCN(c8ccnc(C(=O)NC9CCC(=O)NC9=O)c8)CC7)CC6)CC5)cc4C(F)(F)F)C3=O)c2)C[C@H](C#N)C1 (stereo partly shown) [Example 200, N-(2,6-dioxopiperidin-3-yl)-4-(4-{[(1r,4r)-4-({4-[(3-oxo-2-{3-[(1r,3r)-3-cyano-1-[(4-methyl-4H-1,2,4-triazol-3-yl)methyl]cyclobutyl]phenyl}-7-(trifluoromethyl)-2,3-dihydro-1H-isoindol-5-yl)methyl]piperazin-1-yl}methyl)cyclohexyl]oxy}piperidin-1-yl)pyridine-2-carboxamide]
- DC50: > 500 nM

SMILES: Cn1cnnc1C[C@]1(c2cccc(N3Cc4c(cc(CN5CCN(C[C@H]6CC[C@H](OC7CCN(c8ccc(C9CCC(=O)NC9=O)c(F)c8)CC7)CC6)CC5)cc4C(F)(F)F)C3=O)c2)C[C@H](C#N)C1 (stereo partly shown) [Example 201, (1r,3r)-3-[(4-methyl-4H-1,2,4-triazol-3-yl)methyl]-3-(3-{1-oxo-6-[(4-{[(1r,4r)-4-({1-[4-(2,6-dioxopiperidin-3-yl)-3-fluorophenyl]piperidin-4-yl}oxy)cyclohexyl]methyl}piperazin-1-yl)methyl]-4-(trifluoromethyl)-2,3-dihydro-1H-isoindol-2-yl}phenyl)cyclobutane-1-carbonitrile]
- DC50: > 500 nM
